Test results from ChEMBL document CHEMBL1137354, “Potent, selective, and orally efficacious antagonists of melanin-concentrating hormone receptor 1” (J Med Chem, 2006).

How the values were obtained:
[1] = target: Melanin-concentrating hormone receptor 1 (Homo sapiens, UniProt Q99705); assay: Antagonist activity against human MCHR1 expressed in CHO cells by Gal4/Elk1-Luc reporter assay; type: functional, cell-based
[2] = Oral bioavailability in rat at 3 mg/kg, iv and 10 mg/kg, po; type: ADME, organism-based; details: in vivo
[3] = Half life in rat at 3 mg/kg, iv; type: ADME, organism-based; parameters: dose 3 mg/kg, route intravenous; details: in vivo
[4] = Volume of distribution in rat at 3 mg/kg, iv and 10 mg/kg, po; type: ADME, organism-based; details: in vivo, read-out: Vss
[5] = Total clearance in rat at 3 mg/kg, iv and 10 mg/kg, po; type: ADME, organism-based; details: in vivo
Mus musculus [6] = assay: Concentration in DIO AKR/J mouse serum at 10 mg/kg, po; type: ADME, organism-based; parameters: dose 10 mg/kg, route oral; details: in vivo
Mus musculus [7] = assay: Concentration in DIO AKR/J mouse serum at 3 mg/kg, po; type: ADME, organism-based; parameters: dose 3 mg/kg, route oral; details: in vivo
[8] = Ratio of drug concentration in brain to serum in DIO AKR/J mouse at 3 mg/kg, po
[9] = Ratio of drug concentration in brain to serum in DIO AKR/J mouse at 10 mg/kg, po
Mus musculus [10] = assay: Reduction in body weight of DIO AKR/J mouse relative to control at 1 mg/kg/day, po after 26 days; type: functional; parameters: scale not given: the % may be the effect or the level left
Mus musculus [11] = assay: Reduction in body weight of DIO AKR/J mouse relative to control at 3 mg/kg/day, po after 26 days; type: functional; parameters: scale not given: the % may be the effect or the level left
Mus musculus [12] = assay: Reduction in body weight of DIO AKR/J mouse relative to control at 10 mg/kg/day, po after 26 days; type: functional; parameters: scale not given: the % may be the effect or the level left
Mus musculus [13] = assay: Concentration in DIO AKR/J mouse brain at 1 mg/kg, po; type: ADME, organism-based; parameters: dose 1 mg/kg, route oral; details: in vivo
Mus musculus [14] = assay: Concentration in DIO AKR/J mouse brain at 10 mg/kg, po; type: ADME, organism-based; parameters: dose 10 mg/kg, route oral; details: in vivo
Mus musculus [15] = assay: Concentration in DIO AKR/J mouse brain at 3 mg/kg, po; type: ADME, organism-based; parameters: dose 3 mg/kg, route oral; details: in vivo
Mus musculus [16] = assay: Concentration in DIO AKR/J mouse serum at 1 mg/kg, po; type: ADME, organism-based; parameters: dose 1 mg/kg, route oral; details: in vivo
[17] = Ratio of drug concentration in brain to serum in DIO AKR/J mouse at 1 mg/kg, po

Chain of Melanin-concentrating hormone receptor 1 (Q99705 whole entry, the tested form may be a part): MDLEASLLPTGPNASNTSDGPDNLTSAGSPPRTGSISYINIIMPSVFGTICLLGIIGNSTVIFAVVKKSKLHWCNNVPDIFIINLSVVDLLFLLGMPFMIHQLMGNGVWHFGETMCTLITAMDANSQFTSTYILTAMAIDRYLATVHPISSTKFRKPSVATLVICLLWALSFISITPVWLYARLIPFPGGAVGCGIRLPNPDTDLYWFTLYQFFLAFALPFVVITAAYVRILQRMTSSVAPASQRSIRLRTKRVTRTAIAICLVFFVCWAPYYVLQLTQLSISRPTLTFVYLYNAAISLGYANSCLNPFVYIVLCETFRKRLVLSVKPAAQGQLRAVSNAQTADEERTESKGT

SMILES	IC50 [1]	further results
COc1ccc(-c2cc3ncn(-c4ccc5nc(CN6CCOCC6)ccc5c4)c(=O)c3s2)cc1	31 nM	–
O=c1c2sc(-c3ccc(Cl)cc3)cc2ncn1-c1ccc2nc(CN3CCOCC3)ccc2c1	4.9 nM	–
CN(C)C[C@@H]1COc2cc(-n3cnc4cc(-c5ccc(Cl)cc5)sc4c3=O)ccc2O1	3.2 nM	–
CN1CCN(Cc2ccc3cc(-n4cnc5cc(-c6ccc(Cl)cc6)sc5c4=O)ccc3n2)CC1	3.1 nM	Drug uptake (Mus musculus [6]): 414 ng/mL; Drug uptake (Mus musculus [7]): 178 ng/mL; bioavailability [2]: 98%; half-life [3]: 7.7 h; Vd [4]: 19 L/kg; clearance [5]: 39 mL/min/kg; Kp [8]: 31; Kp [9]: 31; Activity (Mus musculus [10]): 4.8%; Activity (Mus musculus [11]): 9.4%; Activity (Mus musculus [12]): 16.9%; Drug uptake (Mus musculus [13]): 1421 ng/g; Drug uptake (Mus musculus [14]): 13093 ng/g; Drug uptake (Mus musculus [15]): 5508 ng/g; Drug uptake (Mus musculus [16]): 44 ng/mL; Kp [17]: 31
O=c1c2sc(-c3ccc(Cl)cc3)cc2ncn1-c1ccc2nc(CN3CCC(c4ccc(F)cc4)CC3)ccc2c1	3.1 nM	bioavailability [2]: 30%; half-life [3]: 16 h; Vd [4]: 2.3 L/kg; clearance [5]: 2.9 mL/min/kg
O=c1c2sc(-c3ccc(Cl)cc3)cc2ncn1-c1ccc2nc(CN3CCN(c4ccccc4)CC3)ccc2c1	3.8 nM	–
O=c1c2sc(-c3ccc(Cl)cc3)cc2ncn1-c1ccc2nc(CN3CCCC3)ccc2c1	1 nM	–
CN(C)CC1CN(S(=O)(=O)c2ccccc2)c2cc(-n3cnc4cc(-c5ccc(Cl)cc5)sc4c3=O)ccc2O1 (configuration not stated)	6920 nM	–
CCC(C)c1ccc(-c2cc3ncn(-c4ccc5nc(CN6CCOCC6)ccc5c4)c(=O)c3s2)cc1 (configuration not stated)	200 nM	–
O=c1c2sc(-c3ccc(Br)cc3)cc2ncn1-c1ccc2nc(CN3CCOCC3)ccc2c1	40 nM	–
O=c1c2sc(-c3ccccc3Cl)cc2ncn1-c1ccc2nc(CN3CCOCC3)ccc2c1	1260 nM	–
O=c1c2sc(-c3ccc(Cl)cc3)cc2ncn1-c1ccc2nc(CN3CCC(N4CCCC4)CC3)ccc2c1	5.6 nM	–
O=c1c2sc(-c3ccc(Cl)cc3)cc2ncn1-c1ccc2nc(CN3CCC(c4ccccc4)CC3)ccc2c1	1.3 nM	bioavailability [2]: 19%; half-life [3]: 8 h; Vd [4]: 4.3 L/kg; clearance [5]: 11 mL/min/kg
CN(C)C[C@H]1COc2cc(-n3cnc4cc(-c5ccc(Cl)cc5)sc4c3=O)ccc2O1	25 nM	–
O=c1c2sc(-c3ccc(Cl)cc3)cc2ncn1-c1ccc2nc(CN3CCN(CCCN4CCOCC4)CC3)ccc2c1	37 nM	–
O=c1c2sc(-c3ccc(Cl)cc3)cc2ncn1-c1ccc2nc(CO)ccc2c1	3.5 nM	–
O=c1c2sc(-c3ccc(F)cc3)cc2ncn1-c1ccc2nc(CN3CCOCC3)ccc2c1	501 nM	–
O=c1c2sc(-c3cccc(Cl)c3)cc2ncn1-c1ccc2nc(CN3CCOCC3)ccc2c1	3980 nM	–
O=c1c2sc(-c3ccc(Cl)cc3)cc2ncn1-c1ccc2c(c1)OC[C@H](CN1CCCC1)O2	24 nM	bioavailability [2]: 65%; half-life [3]: 6.1 h; Vd [4]: 22 L/kg; clearance [5]: 66 mL/min/kg
O=c1c2sc(-c3ccc(Cl)cc3)cc2ncn1-c1ccc2nc(CN3CCCCC3)ccc2c1	0.89 nM	–
O=c1c2sc(-c3ccc(Cl)cc3)cc2ncn1-c1ccc2c(c1)NCC(CN1CCOCC1)O2 (configuration not stated)	8.5 nM	–
O=c1c2sc(-c3ccc(Cl)cc3)cc2ncn1-c1ccc2c(c1)NCC(CN1CC[C@H](O)C1)O2 (some centres not stated)	5.3 nM	–

Continued by falling IC50 [1], values first:

IC50 [1]	SMILES	further results
4170 nM	CN(C)CC1CN(S(C)(=O)=O)c2cc(-n3cnc4cc(-c5ccc(Cl)cc5)sc4c3=O)ccc2O1 (configuration not stated)	–
794 nM	O=c1c2sc(-c3ccccc3)cc2ncn1-c1ccc2nc(CN3CCOCC3)ccc2c1	–
501 nM	CC(C)(C)c1ccc(-c2cc3ncn(-c4ccc5nc(CN6CCOCC6)ccc5c4)c(=O)c3s2)cc1	–
478 nM	N#Cc1ccc(-c2cc3ncn(-c4ccc5nc(CN6CCOCC6)ccc5c4)c(=O)c3s2)cc1	–
87 nM	CN(Cc1ccc2cc(-n3cnc4cc(-c5ccc(Cl)cc5)sc4c3=O)ccc2n1)c1ccccc1	–
63 nM	O=c1c2sc(-c3ccc(Cl)cc3)cc2ncn1-c1ccc2ncccc2c1	–
36 nM	O=c1c2sc(-c3ccc(C(F)(F)F)cc3)cc2ncn1-c1ccc2nc(CN3CCOCC3)ccc2c1	–
19 nM	O=c1c2sc(-c3ccc(Cl)cc3)cc2ncn1-c1ccc2nc(CN3CCN(CCN4CCOCC4)CC3)ccc2c1	–
7.7 nM	CN(C)CC1COc2cc(-n3cnc4cc(-c5ccc(Cl)cc5)sc4c3=O)ccc2O1 (configuration not stated)	–
7 nM	O=c1c2sc(-c3ccc(Cl)cc3)cc2ncn1-c1ccc2c(c1)OC[C@@H](CN1CCCC1)O2	–
6.2 nM	CCN1CCN(Cc2ccc3cc(-n4cnc5cc(-c6ccc(Cl)cc6)sc5c4=O)ccc3n2)CC1	–
6.1 nM	O=c1c2sc(-c3ccc(Cl)cc3)cc2ncn1-c1ccc2nc(CN3CCC(c4ccc(C(F)(F)F)cc4)CC3)ccc2c1	bioavailability [2]: 18%; half-life [3]: 8.5 h; Vd [4]: 1.1 L/kg; clearance [5]: 3.7 mL/min/kg
3.5 nM	CN1CCN(CC2CNc3cc(-n4cnc5cc(-c6ccc(Cl)cc6)sc5c4=O)ccc3O2)CC1 (configuration not stated)	–
3.4 nM	O=c1c2sc(-c3ccc(Cl)cc3)cc2ncn1-c1ccc2c(c1)NCC(CN1CC[C@@H](O)C1)O2 (some centres not stated)	–
3.2 nM	CN(C)CC1CNc2cc(-n3cnc4cc(-c5ccc(Cl)cc5)sc4c3=O)ccc2O1 (configuration not stated)	bioavailability [2]: 75%; half-life [3]: 8 h; Vd [4]: 27 L/kg; clearance [5]: 88 mL/min/kg
2.3 nM	O=c1c2sc(-c3ccc(Cl)cc3)cc2ncn1-c1ccc2c(c1)NCC(CN1CCCC1)O2 (configuration not stated)	–
2 nM	O=c1c2sc(-c3ccc(Cl)cc3)cc2ncn1-c1ccc2nc(Cn3ccnc3)ccc2c1	–
1.5 nM	O=c1c2sc(-c3ccc(Cl)cc3)cc2ncn1-c1ccc2nc(CN3CCC(CCN4CCCC4)CC3)ccc2c1	–
0.74 nM	CN(C)Cc1ccc2cc(-n3cnc4cc(-c5ccc(Cl)cc5)sc4c3=O)ccc2n1	–
